“And” between values parts separate entries of the source, which are not always exact repeats. Identical values can stand only once.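 Cells were grown in 96-well plates and exposed to each compound for 48 hours at five concentrations; endpoints were interpolated linearly between bracketing concentrations, or set to the highest concentration if not reached. Here, GI50 denotes the concentration required for 50% inhibition of growth. TGI denotes the concentration required for complete inhibition of growth.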
What was measured:
Experiment in all cases: inhibition of tumour cell growth, NCI panel, 48 h
RPMI-8226 leukemia = tested on: RPMI-8226 leukemia
LOX IMVI melanoma = tested on: LOX IMVI melanoma
SK-MEL-2 melanoma = tested on: SK-MEL-2 melanoma
NCI-H460 lung = tested on: NCI-H460 lung
UACC-62 melanoma = tested on: UACC-62 melanoma
K-562 leukemia = tested on: K-562 leukemia
UO-31 renal = tested on: UO-31 renal
SW-620 colon = tested on: SW-620 colon
786-0 renal = tested on: 786-0 renal
OVCAR-3 ovarian = tested on: OVCAR-3 ovarian

Structure (SMILES)	GI50 (RPMI-8226 leukemia)	TGI (RPMI-8226 leukemia)	GI50 (LOX IMVI melanoma)	TGI (LOX IMVI melanoma)	GI50 (SK-MEL-2 melanoma)	TGI (SK-MEL-2 melanoma)	GI50 (NCI-H460 lung)	TGI (NCI-H460 lung)	GI50 (UACC-62 melanoma)	TGI (UACC-62 melanoma)	GI50 (K-562 leukemia)	TGI (K-562 leukemia)	GI50 (UO-31 renal)	TGI (UO-31 renal)	GI50 (SW-620 colon)	TGI (SW-620 colon)	GI50 (786-0 renal)	TGI (786-0 renal)	GI50 (OVCAR-3 ovarian)	TGI (OVCAR-3 ovarian)
N#CC(C#N)N=Nc1ccc(Br)cc1	1.52 µM	8.03 µM	3.75 µM	16.5 µM	8.97 µM	36.1 µM	11.5 µM	> 100 µM	1.91 µM	10.9 µM	3.02 µM	> 100 µM	1.26 µM	7.05 µM	3.01 µM	15.8 µM	3.79 µM	14.1 µM	2.5 µM	15.4 µM
O=S(=O)(N/N=C/c1cccc(Cl)c1Cl)c1ccccc1		> 100 µM		> 100 µM		> 100 µM		> 100 µM		> 100 µM		> 100 µM		> 100 µM		> 100 µM		> 100 µM		> 100 µM
CC1=C(C(=O)NCc2ccccc2)C(c2ccc([N+](=O)[O-])cc2)C(C(=O)NCc2ccccc2)=C(C)N1				44.1 µM		> 100 µM		> 100 µM		64.6 µM		> 100 µM		> 100 µM		> 100 µM		> 100 µM		> 100 µM
CC(C)C1CC2C(=O)N(c3ccccc3)C(=O)C2c2[nH]c3ccccc3c21 (stereo unspecified)		> 100 µM				> 100 µM		> 100 µM		> 100 µM		18.7 µM		80.4 µM		> 100 µM		> 100 µM		38 µM
Cc1nc(-c2ccccc2)cc2c1c(=O)oc1ccccc12		> 100 µM				> 100 µM		> 100 µM		> 100 µM		> 100 µM		> 100 µM		> 100 µM		> 100 µM		> 100 µM
O=C1c2ccccc2NC1(c1ccccc1)c1c(-c2ccccc2)[nH]c2ccccc12 (stereo unspecified)		> 100 µM				> 100 µM		> 100 µM		> 100 µM		> 100 µM		> 100 µM		> 100 µM		> 100 µM		> 100 µM
O=C(Nc1ccccc1O)c1ccc(CNc2ccnc(C(F)(F)F)c2)cc1	0.5 µM	5.09 µM	2.8 µM	46 µM			3.78 µM	83.4 µM	1.3 µM	17.6 µM	2.39 µM	> 100 µM	2.15 µM	14 µM	5.75 µM	23 µM	3.36 µM	13.6 µM	4.88 µM	21.9 µM
O=C(O)/C(Cl)=C(\Cl)C(=O)NC1C2CC3CC(C2)CC1C3 (stereo unspecified)		> 100 µM		> 100 µM						> 100 µM		> 100 µM		> 100 µM		> 100 µM		> 100 µM		> 100 µM
Cc1cc2cn3c4ccc(O)cc4[nH]c(=O)c3c2cc1C	0.252 µM	3.28 µM			0.0411 µM	1.97 µM			0.0411 µM	1.78 µM		0.329 µM	0.0228 µM	1.84 µM	0.0105 µM	1.53 µM	0.0696 µM	1.83 µM	0.0125 µM	0.0399 µM
O=C(c1ccccc1)c1oc2ccc(Br)cc2c1-c1cnn(-c2ccccc2)c1		> 100 µM		> 100 µM		> 100 µM		> 100 µM		> 100 µM		> 100 µM		> 100 µM				> 100 µM		> 100 µM
O=C(/C=C/C=C/c1c(C2CC2)nc2ccccc2c1-c1ccc(F)cc1)c1cccs1					1.74 µM	6.14 µM	1.14 µM	3.31 µM	1.46 µM	6.64 µM			1.16 µM	3.05 µM	1.67 µM	11.8 µM	2.76 µM	> 100 µM	1.5 µM	4.99 µM
O=C(Nc1cccc(Cc2cccc(NC(=O)c3ccccc3)c2)c1)c1ccccc1				> 100 µM		> 100 µM		> 100 µM		> 100 µM		> 100 µM		66.3 µM		> 100 µM		> 100 µM		> 100 µM
CN(/N=C/c1cccc2cccnc12)c1ccc([N+](=O)[O-])cc1		> 100 µM		> 100 µM		> 100 µM		> 100 µM		> 100 µM		> 100 µM				> 100 µM		> 100 µM		> 100 µM
CN(C)CCSc1cccc(-c2cc(-c3cccc(SCCN(C)C)c3)nc(SCCN(C)C)n2)c1				3.03 µM		21.1 µM		3.46 µM		32 µM		3.1 µM		27.9 µM		3.95 µM		20.9 µM		21.8 µM
Clc1ccc(C2=Nn3c(nnc3-c3cc(Cl)cc(Cl)c3Cl)SC2)cc1	44.3 µM	> 100 µM	27.1 µM	> 100 µM	41.7 µM	> 100 µM	41.3 µM	> 100 µM	21.6 µM	70.9 µM	3.4 µM	35.1 µM			17.4 µM	> 100 µM	17.1 µM	38 µM	21.2 µM	50.8 µM
O=c1c(O)cccc2cc(O)c(O)c(O)c12	6.77 µM	> 100 µM	13.2 µM	> 100 µM			6.86 µM	> 100 µM	6.4 µM	> 100 µM	3.95 µM	> 100 µM	2.54 µM	> 100 µM	20.2 µM	> 100 µM	62.1 µM	> 100 µM	6.57 µM	32.3 µM
OC(COc1ccc(F)cc1)Cn1cnc2c(Cl)ncnc21 (stereo unspecified)	39.7 µM	> 100 µM	39.1 µM	> 100 µM	> 100 µM	> 100 µM	> 100 µM	> 100 µM	79 µM	> 100 µM			> 100 µM	> 100 µM	72.9 µM	> 100 µM	> 100 µM	> 100 µM	74 µM	> 100 µM
CN1C(c2ccccc2)CS(=O)(=O)CS1(=O)=O (stereo unspecified)				> 100 µM		> 100 µM		> 100 µM		> 100 µM				> 100 µM		> 100 µM		> 100 µM		88.7 µM

Structure (SMILES)	GI50 (RPMI-8226 leukemia)	TGI (RPMI-8226 leukemia)	GI50 (LOX IMVI melanoma)	TGI (LOX IMVI melanoma)	GI50 (SK-MEL-2 melanoma)	TGI (SK-MEL-2 melanoma)	GI50 (NCI-H460 lung)	TGI (NCI-H460 lung)	GI50 (UACC-62 melanoma)	TGI (UACC-62 melanoma)	GI50 (K-562 leukemia)	TGI (K-562 leukemia)	GI50 (UO-31 renal)	TGI (UO-31 renal)	GI50 (SW-620 colon)	TGI (SW-620 colon)	GI50 (786-0 renal)	TGI (786-0 renal)	GI50 (OVCAR-3 ovarian)	TGI (OVCAR-3 ovarian)
CC(C)CC(=O)Nc1n[nH]c2c1CN(C(=O)C1CCN(C)CC1)C2(C)C	0.506 µM	5.97 µM	0.209 µM	8.63 µM	0.524 µM	2.8 µM	0.309 µM	> 10 µM			1.34 µM	> 10 µM	> 10 µM	> 10 µM	0.895 µM	> 10 µM	2.07 µM	> 10 µM	0.435 µM	5.25 µM
Cc1cc(Nc2c3ccccc3nc3ccccc23)ccc1NS(C)(=O)=O	3.02 µM	11.2 µM	3.13 µM	13.5 µM	3.42 µM	10.6 µM	3.07 µM	11.6 µM			3.59 µM	14.5 µM	1.9 µM	8.76 µM	3.36 µM	15.9 µM	4.73 µM	16.7 µM	6.13 µM	20.1 µM
COc1cc(Nc2ncc(F)c(Nc3ccc4c(n3)NC(=O)C(C)(C)O4)n2)cc(OC)c1OC	> 100 µM	> 100 µM	1.57 µM	> 10 µM	> 100 µM	> 100 µM	> 100 µM	> 100 µM			> 100 µM	> 100 µM	0.679 µM	> 10 µM	> 10 µM	> 10 µM	1.03 µM and 1.27 µM	> 100 µM	> 100 µM	> 100 µM
CC(=O)[O-].[Mn+3].[O-]c1ccccc1C=NCCN=Cc1ccccc1[O-]			> 100 µM	> 100 µM			44.4 µM	> 100 µM	> 100 µM	> 100 µM	30.3 µM	> 100 µM	> 100 µM	> 100 µM	> 100 µM	> 100 µM	> 100 µM	> 100 µM	17 µM	> 100 µM
O=C(O)c1cc2ccccc2c(N=Nc2cc(C(F)(F)F)ccc2Cl)c1O		> 100 µM				> 100 µM		> 100 µM				> 100 µM		> 100 µM		> 100 µM		> 100 µM		> 100 µM
CN(C)c1ncc(-c2ccc(C(F)(F)F)cc2)c(NC2CCCCCC2)n1	6.51 µM	24.4 µM					16.2 µM	35.9 µM	14.7 µM	35.7 µM	14.6 µM	41.1 µM	12.6 µM	35.2 µM	15 µM	37.3 µM	14.8 µM	33.4 µM	16.3 µM	33.3 µM
Cc1ccccc1C(=O)Oc1ccc(O)cc1		> 100 µM				> 100 µM		> 100 µM		> 100 µM		> 100 µM		> 100 µM		> 100 µM		> 100 µM		> 100 µM
O=Cc1ccc(-c2ccc(-c3nc4ccccc4o3)cc2)s1			16.7 µM	36 µM	63.4 µM	> 100 µM	23.7 µM	85.3 µM	30.7 µM	98.8 µM	37 µM	> 100 µM	38.5 µM	> 100 µM	71.2 µM	> 100 µM	31.9 µM	> 100 µM	16.5 µM	45.4 µM
Cc1nc([C@H]2CC[C@H]3[C@@H]4CCC5=CC(=O)CC[C@]5(C)[C@H]4CC[C@]23C)cs1	0.531 µM		5.09 µM	> 100 µM	> 100 µM	> 100 µM	2.67 µM	> 100 µM	4.1 µM	> 100 µM	4.7 µM	> 100 µM			7.66 µM	> 100 µM	> 100 µM	> 100 µM	> 22.6 µM	> 100 µM
C=C1c2[nH]c3ccccc3c2C2C(CC)C1CCN2C (stereo unspecified)		88.8 µM		> 100 µM		> 100 µM		> 100 µM		> 100 µM				> 100 µM		> 100 µM		> 100 µM		> 100 µM
COC1=CC23CCCN2CCc2cc4c(cc2C3C1O)OCO4 (stereo unspecified)				> 100 µM		> 100 µM		> 100 µM		> 100 µM				> 100 µM		> 100 µM		> 100 µM		
CC#C/C(=N\OC[C@H]1COCCN1)c1ccc2ncnc(Nc3ccc(OCc4cccc(F)c4)c(Cl)c3)c2c1	1.66 µM	3.81 µM	1.75 µM	3.29 µM	1.97 µM	3.61 µM			1.68 µM	3.11 µM			1.13 µM	2.41 µM			1.52 µM	3.07 µM	1.43 µM	2.94 µM
COc1cc(O)c2c(c1)C(=O)C=C(Cl)C2=O		> 100 µM		> 100 µM		> 100 µM				> 100 µM		> 100 µM		> 100 µM		> 100 µM		> 100 µM		> 100 µM
O=C(Cc1nc2ccccc2s1)C(=O)Nc1cccc(Cl)c1		> 100 µM		> 100 µM		> 100 µM				> 100 µM		> 100 µM		> 100 µM		> 100 µM		> 100 µM		> 100 µM
CC(=O)OC1CC2Oc3ccc(C)cc3C(C)(O2)C1=O (stereo unspecified)		> 100 µM		> 100 µM				> 100 µM		> 100 µM		> 100 µM		> 100 µM		> 100 µM		> 100 µM		> 100 µM
COc1ccc(NC(=O)CC/C(CC(=O)C(C)(C)C)=N\NC(=O)C(N)=O)cc1				> 100 µM		> 100 µM		> 100 µM		> 100 µM		> 100 µM		> 100 µM		> 100 µM		> 100 µM		> 100 µM
CCN1C2=NCCN2S(=O)(=O)c2ccccc21				> 100 µM		> 100 µM		> 100 µM		> 100 µM		> 100 µM		> 100 µM		> 100 µM		> 100 µM		> 100 µM
O=c1cc(-c2ccccc2)oc2cc(O)cc(O)c12		41.7 µM		46.8 µM		39.6 µM		40.2 µM		76.5 µM		63.1 µM		43.5 µM				60.1 µM		82.1 µM

Source: PubChem BioAssay (NCI)
